Experimental data reported in patent US20110039770A1, “INHIBITORS OF PROTEIN KINASE C ISOFORMS AND USES THEREOF” (PHARMAGAP INC., priority 2005, published 2011).
Where a SMILES comes first, the peptide text is derived from it. The star is where a group is joined. PNA(A) = NCCN(CC(=O)*)C(=O)Cn1cnc2c(N)ncnc21

Target: T1, PKC zeta (Homo sapiens, UniProt Q05513)
T1 sequence (Q05513 1-592): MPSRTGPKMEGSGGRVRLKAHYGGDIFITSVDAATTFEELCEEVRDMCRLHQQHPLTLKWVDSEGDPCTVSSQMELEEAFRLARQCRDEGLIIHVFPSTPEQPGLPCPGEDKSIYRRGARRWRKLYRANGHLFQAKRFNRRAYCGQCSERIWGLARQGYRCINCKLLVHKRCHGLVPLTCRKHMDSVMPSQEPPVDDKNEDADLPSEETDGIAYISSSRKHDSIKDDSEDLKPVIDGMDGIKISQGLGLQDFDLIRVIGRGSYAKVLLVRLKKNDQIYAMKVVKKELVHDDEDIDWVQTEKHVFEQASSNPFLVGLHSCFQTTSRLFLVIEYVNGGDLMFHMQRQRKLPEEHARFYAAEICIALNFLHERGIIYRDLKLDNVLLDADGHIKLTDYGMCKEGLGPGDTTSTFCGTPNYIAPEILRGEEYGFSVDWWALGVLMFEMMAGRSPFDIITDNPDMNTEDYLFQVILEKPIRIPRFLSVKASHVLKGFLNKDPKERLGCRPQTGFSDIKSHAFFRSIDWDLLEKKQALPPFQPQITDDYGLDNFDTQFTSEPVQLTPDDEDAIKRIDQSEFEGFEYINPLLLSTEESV
Assay: PKC isoform protein levels in cancer cell lines after TIM 10 (Western blot)
Type: cell-based
Design: endogenous in cells
Conditions: 5 mM by pinocytic influx, 24 hrs
Description: The effect of compound TIM 10 on the levels of protein for various PKC isoforms was assessed as generally described below in the following human cancer cell lines: MDA MB-231 breast adenocarcinoma cells (ATCC HTB-26); T24 bladder transitional cell carcinoma (ATCC HTB-4); SKOV-3 ovary adenocarcinoma (ATCC HTB-77); MCF-7 breast adenocarcinoma (ATCC HTB-22); Capan-2 pancreatic adenocarcinoma (ATCC HTB-80); NCI-H661 NSCL large cells (ATCC HTB-183); Calu-6 probable lung anaplastic carcinoma (ATCC HTB-56) and Calu-3 lung adenocarcinoma (ATCC HTB-55).
Cells representative of the different cancer types were cultured according to ATCC instructions. At subconfluence, the cells were trypsinized and compound 10 (5 mM) was incorporated into the cells by pinocytic influx endocytosis according to the manufacturer's instructions (Molecular Probe). Matching controls were treated accordingly except that vehicle was incorporated instead of compound 10. Following pinocytic influx, the cells were seeded and allowed to grow in fresh medium for 24 hrs. The cell cultures were further extracted using RIPA lysis buffer according to standard protocol. The protein content of each lysate was measured using Bradford protein estimation procedure (BioRad) and normalized. Following addition of sample buffer, the proteins from 15 μl of each extract were separated by electrophoresis, electro-transferred to nitrocellulose membranes and the various isoforms of PKC were detected using appropriate antibodies (Santa Cruz Biotechnology, Inc., CA). The relative intensity of bands of the expected molecular weight was estimated after scanning and the % decrease in the band intensity relative to control was calculated.

CC[C@H](C)[C@H](NC(=O)[C@H](CO)NC(=O)[C@@H](NC(=O)CNC(=O)[C@@H](NC(=O)[C@H](CC(C)C)NC(=O)[C@H](CC(N)=O)NC(=O)[C@H](CCC(N)=O)NC(=O)[C@H](C)NC(=O)[C@H](CC(=O)O)NC(=O)[C@H](CCCCN)NC(=O)CNC(=O)CNC(=O)CNC(=O)CNC(=O)CNC(=O)CNC(=O)CNC(=O)[C@H](CC(C)C)NC(=O)[C@H](CCCNC(=N)N)NC(=O)[C@H](Cc1ccccc1)NC(=O)[C@H](CCCCNC(=O)CN(CCN)C(=O)Cn1cnc2c(N)ncnc21)NC(=O)[C@H](CCCNC(=N)N)NC(=O)[C@H](CCCNC(=N)N)NC(=O)[C@H](Cc1ccccc1)NC(C)=O)[C@@H](C)CC)[C@@H](C)CC)C(N)=O [TIM 10] (Ac-FRRK(PNA(A))FRLGGGGGGGKDAQNLIGISI-NH2)
% decrease PKC-ζ band intensity relative to control (Capan-2): 0.0% | % decrease PKC-ζ band intensity relative to control, Band 1 (H661, Band 1): 13.4% | % decrease PKC-ζ band intensity relative to control, Band 2 (H661, Band 2): 0.0% | % decrease PKC-ζ band intensity relative to control (MCF-7): 7.3% | % decrease PKC-ζ band intensity relative to control (MDA-MB231): 0.0% | % decrease PKC-ζ band intensity relative to control (T24): 0.0%
